Data on 17 molecules can be found in patent US20240376076A1, “INHIBITORS TARGETING UBIQUITIN SPECIFIC PROTEASE 7 (USP7)” (Dana-Farber Cancer Institute, Inc., priority 2021, published 2024).

In series [1] the target is T1, USP7, Active human recombinant protein (Homo sapiens, UniProt Q93009).
T1 construct: purchased CP Lot; 20200225001
The series is described as follows: USP7 assay (Ubiquitin-Rhodamine 110 enzymatic assay). It is filed as biochemical. The procedure, abridged:
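Kinetic 20-min fluorescence read (485/535 nm) of ubiquitin-rhodamine 110 (190 nM final) cleavage by 0.05 nM USP7 gave slopes. Compounds, 10 concentrations in 3-fold steps, had 15 min RT preincubation with enzyme first. Inhibition relative to max (enzyme+substrate) and min (substrate only) signals, fitted to IC50.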

Series [2] in a line: mouse liver microsomal stability (Microsome Assay Protocol). Type of series: in vitro ADME. The conditions noted are these: pH 7.4; mouse liver microsomes, NADPH, 37° C.; read-out: MLM t1/2, min. The procedure, abridged: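 Compound at 1.5 μM was mixed with 0.75 mg/mL mouse liver microsomes in 0.1 M potassium phosphate, 1.0 mM EDTA, pH 7.4, then started with NADPH from a 6 mM stock after 5 min preincubation at 37 °C. Samples taken at 0, 5, 15, 30 and 45 min were quenched with acetonitrile containing internal standard and analysed by LC/MS.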
(In general: Liver microsomes are vesicles of endoplasmic reticulum, rich in cytochrome P450 enzymes.)

Series [3] in a line: plasma stability (Plasma Assay Protocol). Type of series: in vitro ADME. To be noted: 37° C., t1/2 extrapolated if >50% remaining at 60 min, ∞ if near 100% remaining. The method, then:
ND refers to not disclosed.
• 1. Preheated 0.05 M sodium phosphate and 0.07 M NaCl buffer, pH 7.4. Dissolved 14.505 g/L Na2HPO4·12H2O, 1.483 g/L NaH2PO4·2H2O and 4.095 g/L NaCl in deionized water. The basic solution was then titrated with the phosphoric acid to pH 7.40. Stored in fridge up to 7 days. Checked pH on the day of experiment and adjust if outside specification of 7.4+/−0.1. • 2. Plasma preparation: • Thawed frozen plasma by placing at 37° C. quickly. Centrifuged plasma at 3,000 rpm for 8 minutes to remove clots, pipetted and pooled the supernatant as the plasma to be used in the experiment. Checked and recorded the pH of the plasma. Only used plasma within the range of pH 7.4 to pH 8. If higher than pH 8, discarded the plasma. By using a 5% CO2 incubator and PBS buffer, a pH of 7.4 was reached after the 4 hour equilibrium dialysis time. Put the plasma on ice until used. • 3. Tested compounds and reference compounds spiking solution: • 0.5 mM test compounds spiking solution A: Added 10 μL of 10 mM test compounds stock solution to 190 μL DMSO. • 0.02 mM spiking solution B: Added 40 μL of spiking solution A to 960 μL of […] Sodium phosphate buffer with 0.5% BSA.
Pre-warmed the plasma and spiking solution B at 37° C. for 5 min. Added 10 μL of pre-warmed spiking solution B into the wells designated for all the time points (5, 15, 30, 45, 60 min).
For 0-min, added 400 μL of acetonitrile (ACN) containing the internal standard (IS) to the wells of 0-min plate and then added 90 μL of plasma. Added 90 μL of pre-warmed plasma into the wells designated for the time points (0, 5, 15, 30, 45, 60 min), and started timing. At 5, 15, 30, 45, 60 min, added 400 μL of ACN containing IS to the wells of corresponding plates, respectively, to stop the reaction. After quenching, shook the plates at the vibrator (IKA, MTS 2/4) for 10 min (600 rpm/min) and then centrifuged at 5594 g for 15 min (Thermo Multifuge×3R). Transferred 50 μL of the supernatant from each well into a 96-well sample plate containing 50 μL of ultra pure water (Millipore ZMQS50F01) for LC/MS analysis.

Each structure is given as a SMILES string. Like-named read-outs stand apart in the source and are kept apart here.

T1 sequence (Q93009 whole entry): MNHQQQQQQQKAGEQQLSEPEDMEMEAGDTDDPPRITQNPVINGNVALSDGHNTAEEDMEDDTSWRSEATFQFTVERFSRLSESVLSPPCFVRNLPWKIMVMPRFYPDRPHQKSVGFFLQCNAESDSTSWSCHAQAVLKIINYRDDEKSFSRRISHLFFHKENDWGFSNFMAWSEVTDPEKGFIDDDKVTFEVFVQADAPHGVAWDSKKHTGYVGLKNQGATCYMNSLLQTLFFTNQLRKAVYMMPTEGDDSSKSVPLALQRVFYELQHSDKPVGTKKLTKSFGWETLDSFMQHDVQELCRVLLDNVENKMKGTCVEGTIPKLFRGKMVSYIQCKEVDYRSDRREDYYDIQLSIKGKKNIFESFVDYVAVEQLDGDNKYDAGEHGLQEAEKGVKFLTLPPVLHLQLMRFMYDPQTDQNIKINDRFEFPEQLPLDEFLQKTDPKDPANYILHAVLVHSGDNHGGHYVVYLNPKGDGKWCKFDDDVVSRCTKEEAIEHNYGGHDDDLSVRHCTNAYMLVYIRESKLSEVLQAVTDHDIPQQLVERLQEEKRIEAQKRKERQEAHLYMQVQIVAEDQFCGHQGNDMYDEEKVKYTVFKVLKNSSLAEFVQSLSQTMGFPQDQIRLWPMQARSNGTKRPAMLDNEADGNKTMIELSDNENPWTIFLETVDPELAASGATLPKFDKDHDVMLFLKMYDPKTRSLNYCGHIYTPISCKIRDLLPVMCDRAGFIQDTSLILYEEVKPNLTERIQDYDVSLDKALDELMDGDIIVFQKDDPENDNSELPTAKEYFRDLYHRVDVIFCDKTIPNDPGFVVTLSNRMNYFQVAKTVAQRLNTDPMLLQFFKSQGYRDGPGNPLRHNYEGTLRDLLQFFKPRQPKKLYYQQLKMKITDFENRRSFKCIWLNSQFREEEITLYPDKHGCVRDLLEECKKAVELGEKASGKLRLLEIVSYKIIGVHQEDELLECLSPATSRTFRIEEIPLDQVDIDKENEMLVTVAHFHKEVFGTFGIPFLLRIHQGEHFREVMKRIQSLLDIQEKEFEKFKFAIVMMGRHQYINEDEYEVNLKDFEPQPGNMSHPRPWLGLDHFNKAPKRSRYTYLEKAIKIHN

As for `CN1CCN(c2ccc3c(=O)n(CC4(O)CCN(C(=O)[C@H](CCCNC(=O)c5ccc6c(Cl)cc(C7CC7)nc6c5)Cc5ccccc5)CC4)cnc3c2)CC1` [Compound 122], the IC50 (usually the concentration that inhibits the measured activity by half) in series [1] (read-out: IC50) lay within 0.02 to 0.1 µM. Moreover, in series [2], the half-life at 1 µM stood at 3090 min. Moreover, the half-life at 2 µM in series [3] was 226 min.
On the same counts, the results for `CN1CCN(CCC(=O)Nc2ccc3c(=O)n(CC4(O)CCN(C(=O)C5CCN(c6cccc7c6CN(C#N)C7)C[C@H]5c5ccccc5)CC4)cnc3c2)CC1` (some centres unmarked) [Compound 94] are 0.1 to 1 µM, 30.8 min and 1.31 min.
For `CN1CCN(CCC(=O)Nc2ccc3c(=O)n(CC4(O)CCN(C(=O)C(CCCNC(=O)c5ccc6c(Cl)cc(C7CC7)nc6c5)Cc5ccccc5)CC4)cnc3c2)CC1` (centres unmarked) [Compound 22], in that order: 0.02 to 0.1 µM, 18.3 min and 135 min.
As for `CN(C)CCCOc1ccc2c(=O)n(CC3(O)CCN(C(=O)[C@H](CCCNC(=O)c4ccc5c(Cl)c(C(=O)NC6CC6)cnc5c4)Cc4ccccc4)CC3)cnc2c1`, the IC50 in series [1] (read-out: IC50) was less than 0.02 µM. Further, in series [2], the half-life at 1 µM came to 44.1 min. In series [3], the half-life at 2 µM is 28.9 min.
On the same counts, the results for `CN(C)CCCOc1ccc2c(=O)n(CC3(O)CCN(C(=O)C(CCCNC(=O)c4ccc5c(Cl)cc(C6CC6)nc5c4)Cn4ccc(F)n4)CC3)cnc2c1` (centres unmarked) are less than 0.02 µM, 17 min and 188 min.
As to `C=CC(=O)Nc1ccncc1N1CCC(C(=O)N2CCC(O)(Cn3cnc4cc(NC(=O)CCN5CCN(C)CC5)ccc4c3=O)CC2)C(c2ccccc2)C1` (centres unmarked) [Compound 106], the IC50 in series [1] (1 h, read-out: IC50, μM (1 h)) is 0.1 to 1 µM; in series [1] (6 h, read-out: IC50, μM (6 h)), less than 0.02 µM; in series [1] (16 h, read-out: IC50, μM (16 h)), less than 0.02 µM. Further, the half-life at 1 µM in series [2] was 39 min. Also, in series [3], the half-life at 2 µM is 6.8 min.
For the molecule `CN(C)CCC(=O)Nc1ccc2c(=O)n(CC3(O)CCN(C(=O)[C@@H]4CCN(CCNC(=O)c5ccc6c(Cl)ccnc6c5)C[C@H]4c4ccccc4)CC3)cnc2c1` [Compound 75], the IC50 in series [1] (read-out: IC50) was less than 0.02 µM. In series [2], the half-life at 1 µM was determined as 69.4 min. Moreover, in series [3], the half-life at 2 µM was 67.4 min.
For `C=CC(=O)Nc1ccccc1N1CCC(C(=O)N2CCC(O)(Cn3cnc4cc(NC(=O)CCN5CCN(C)CC5)ccc4c3=O)CC2)C(c2ccccc2)C1` (centres unmarked) [Compound 102], in that order: 0.1 to 1 µM, 26.9 min and 4.25 min.
Regarding `CC(C)c1cnc2cc(C(=O)NCCN3CCC(C(=O)N4CCC(O)(Cn5cnc6cc(OCCN7CCNCC7)ccc6c5=O)CC4)C(c4ccccc4)C3)ccc2c1Cl` (centres unmarked) [Compound 108], the IC50 in series [1] (read-out: IC50) is less than 0.02 µM. In addition, the half-life at 1 µM in series [2] was 14 min. Moreover, the “Plasma t1/2, min” value in series [3] is recorded as “∞*”.
On to `O=C(NCCN1CCC(C(=O)N2CCC(O)(Cn3cnc4cc(OCCN5CCNCC5)ccc4c3=O)CC2)C(c2ccccc2)C1)c1ccc2c(F)ccnc2c1` (centres unmarked) [Compound 109], for which the IC50 in series [1] (read-out: IC50) was less than 0.02 µM. The half-life at 1 µM in series [2] is 22.4 min. Moreover, in series [3], the half-life at 2 µM is 102 min.
Regarding `CN1CCN(CCC(=O)Nc2ccc3c(=O)n(CC4(O)CCN(C(=O)C(CCCNC(=O)c5ccc6c(Cl)ccnc6c5)Cc5ccccc5)CC4)cnc3c2)CC1` (centres unmarked), the IC50 in series [1] (read-out: IC50) lay in the range of 0.02 to 0.1 µM. Also, the half-life at 1 µM in series [2] came to 11 min. Besides, in series [3], the half-life at 2 µM was 328 min.
Take `CN(C)CCCOc1ccc2c(=O)n(CC3(O)CCN(C(=O)[C@H](CCCNC(=O)c4ccc5c(Cl)cc(C6CC6)nc5c4)Cc4ccccc4)CC3)cnc2c1`: the IC50 in series [1] (read-out: IC50) was less than 0.02 µM. The half-life at 1 µM in series [2] came to 27.1 min. Besides, the “Plasma t1/2, min” value in series [3] is on record as “∞*”.
For the molecule `CN(C)CCOc1cc(F)c2c(=O)n(CC3(O)CCN(C(=O)C4CCN(CCNC(=O)c5ccc6c(Cl)ccnc6c5)CC4c4ccccc4)CC3)cnc2c1` (centres unmarked) [Compound 112], the IC50 in series [1] (read-out: IC50) fell in the range of 0.1 to 1 µM. In addition, the half-life at 1 µM in series [2] came to 45.3 min. Also, in series [3], the half-life at 2 µM is 305 min.
As for `CN1CCN(CCC(=O)Nc2ccc3c(=O)n(CC4(O)CCN(C(=O)[C@@H](CCCNC(=O)c5ccc6c(Cl)cc(-c7cnn(CC(F)(F)F)c7)nc6c5)Cc5ccccc5)CC4)cnc3c2)CC1` [Compound 20], the IC50 in series [1] (read-out: IC50) was 0.02 to 0.1 µM. In addition, in series [2], the half-life at 1 µM worked out at 25.8 min. Moreover, in series [3], the half-life at 2 µM was 226 min.
For `CN1CCN(CCOc2ccc3c(=O)n(CC4(O)CCN(C(=O)C(CCCNC(=O)c5ccc6c(Cl)ccnc6c5)Cc5ccccc5)CC4)cnc3c2)CC1` (centres unmarked) [Compound 30, N-(4-benzyl-5-(4-hydroxy-4-((7-(2-(4-methylpiperazin-1-yl)ethoxy)-4-oxoquinazolin-3(4H)-yl)methyl)piperidin-1-yl)-5-oxopentyl)-4-chloroquinoline-7-carboxamide], in that order: 0.02 to 0.1 µM, 15.7 min and 6710 min.
For `O=C(NCCCC(Cn1ccc(F)n1)C(=O)N1CCC(O)(Cn2cnc3ccccc3c2=O)CC1)c1ccc2c(Cl)c3c(nc2c1)CCCC3` (centres unmarked), in that order: less than 0.02 µM, 0.56 min and 394 min.
For `CN1CCN(CCC(=O)Nc2ccc3c(=O)n(CC4(O)CCN(C(=O)[C@@H](CCCNC(=O)c5ccc6c(Cl)c7c(nc6c5)CCCC7)Cc5ccccc5)CC4)cnc3c2)CC1`, in that order: less than 0.02 µM, 2 min and more than 500 min.
